Experimental data taken from PubChem BioAssay (NCI).
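Grown in 96-well plates, cells were treated for 48 hours with each compound at five concentrations. Insufficient inhibition: endpoint recorded as highest concentration tested. Abbreviation: GI50, concentration required for 50% inhibition of growth. TGI is the concentration that stops growth completely.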

Columns and labels:
Assay in all cases: NCI anticancer screen, dose series, 48 h
MALME-3M melanoma = test system: MALME-3M melanoma
TK-10 renal = test system: TK-10 renal
RPMI-8226 leukemia = test system: RPMI-8226 leukemia
SK-MEL-5 melanoma = test system: SK-MEL-5 melanoma
ACHN renal = test system: ACHN renal
HCT-116 colon = test system: HCT-116 colon
COLO 205 colon = test system: COLO 205 colon
IGROV1 ovarian = test system: IGROV1 ovarian
OVCAR-3 ovarian = test system: OVCAR-3 ovarian
HOP-92 NSCLC = test system: HOP-92 NSCLC

Q: What does the source list for O=C(Nc1ccccc1C(=O)N/N=C(\c1ccccc1)c1ccccn1)c1ccc(F)cc1?
A: GI50 (MALME-3M melanoma): 0.767 µM; TGI (MALME-3M melanoma): > 100 µM; GI50 (TK-10 renal): 0.408 µM; TGI (TK-10 renal): > 100 µM; GI50 (RPMI-8226 leukemia): 0.51 µM; TGI (RPMI-8226 leukemia): > 100 µM; GI50 (SK-MEL-5 melanoma): 0.22 µM; TGI (SK-MEL-5 melanoma): 3.5 µM; GI50 (ACHN renal): 0.127 µM; GI50 (HCT-116 colon): 0.266 µM; TGI (HCT-116 colon): > 100 µM; GI50 (COLO 205 colon): 0.215 µM; TGI (COLO 205 colon): > 100 µM; GI50 (IGROV1 ovarian): 0.198 µM; TGI (IGROV1 ovarian): > 100 µM; GI50 (OVCAR-3 ovarian): 0.211 µM; TGI (OVCAR-3 ovarian): > 100 µM; GI50 (HOP-92 NSCLC): 1.42 µM; TGI (HOP-92 NSCLC): > 100 µM

Q: What does the source list for COC(=O)/C(=N\NC(N)=S)C(C#N)c1ccccc1 (configuration not stated)?
A: TGI (MALME-3M melanoma): > 100 µM; TGI (TK-10 renal): > 100 µM; TGI (RPMI-8226 leukemia): > 100 µM; TGI (SK-MEL-5 melanoma): > 100 µM; TGI (ACHN renal): > 100 µM; TGI (HCT-116 colon): > 100 µM; TGI (COLO 205 colon): > 100 µM; TGI (IGROV1 ovarian): > 100 µM; TGI (OVCAR-3 ovarian): > 100 µM; TGI (HOP-92 NSCLC): > 100 µM

Q: Cc1cc([N+](=O)[O-])c(C)c(Br)c1C was tested. Which TGI (MALME-3M melanoma) did it give?
A: > 100 µM

Q: What about the TGI (TK-10 renal) of the same compound?
A: > 100 µM

Q: And the TGI (RPMI-8226 leukemia)?
A: > 100 µM

Q: And the TGI (SK-MEL-5 melanoma)?
A: > 100 µM

Q: And the TGI (ACHN renal)?
A: > 100 µM

Q: And the TGI (HCT-116 colon)?
A: > 100 µM

Q: What about the TGI (COLO 205 colon) of the same compound?
A: > 100 µM

Q: And the TGI (IGROV1 ovarian)?
A: > 100 µM

Q: What about the TGI (OVCAR-3 ovarian) of the same compound?
A: > 100 µM

Q: And the TGI (HOP-92 NSCLC)?
A: > 100 µM

Q: Cc1ccc(C(C)C)cc1NC(=O)Nc1ccc([N+](=O)[O-])cc1 was tested. Which GI50 (MALME-3M melanoma) did it give?
A: 2.02 µM

Q: And the TGI (MALME-3M melanoma)?
A: 6.48 µM

Q: And the GI50 (TK-10 renal)?
A: 2.36 µM

Q: And the TGI (TK-10 renal)?
A: 9.44 µM

Q: What about the GI50 (RPMI-8226 leukemia) of the same compound?
A: 1.57 µM

Q: And the TGI (RPMI-8226 leukemia)?
A: 4.73 µM

Q: And the GI50 (SK-MEL-5 melanoma)?
A: 1.55 µM

Q: What about the TGI (SK-MEL-5 melanoma) of the same compound?
A: 2.9 µM

Q: And the GI50 (ACHN renal)?
A: 2.56 µM

Q: And the TGI (ACHN renal)?
A: 7.82 µM

Q: And the GI50 (HCT-116 colon)?
A: 2.45 µM

Q: And the TGI (HCT-116 colon)?
A: 7.13 µM

Q: What about the GI50 (COLO 205 colon) of the same compound?
A: 1.67 µM

Q: What about the TGI (COLO 205 colon) of the same compound?
A: 3.03 µM

Q: What about the GI50 (IGROV1 ovarian) of the same compound?
A: 1.38 µM

Q: And the TGI (IGROV1 ovarian)?
A: 4.79 µM

Q: And the GI50 (OVCAR-3 ovarian)?
A: 1.77 µM

Q: And the TGI (OVCAR-3 ovarian)?
A: 6.28 µM

Q: And the GI50 (HOP-92 NSCLC)?
A: 2.42 µM

Q: What about the TGI (HOP-92 NSCLC) of the same compound?
A: 8.89 µM

Q: With CC1CCC2N(C1)CC1C3(O)CC45OC6(O)C(O)CCC4(C)C6CCC5C3(O)CC(O)C1(O)C2(C)O (configuration not stated) as the compound, how does the TGI (MALME-3M melanoma) read?
A: > 100 µM

Q: What about the TGI (TK-10 renal) of the same compound?
A: > 100 µM

Q: And the TGI (RPMI-8226 leukemia)?
A: > 100 µM

Q: And the TGI (SK-MEL-5 melanoma)?
A: > 100 µM

Q: And the TGI (ACHN renal)?
A: > 100 µM

Q: And the TGI (HCT-116 colon)?
A: > 100 µM

Q: And the TGI (COLO 205 colon)?
A: > 100 µM

Q: And the TGI (IGROV1 ovarian)?
A: > 100 µM

Q: What about the TGI (OVCAR-3 ovarian) of the same compound?
A: > 100 µM

Q: What about the TGI (HOP-92 NSCLC) of the same compound?
A: > 100 µM

Q: COc1cc2cc3c4c(cc(OC)c(OC)c4c2cc1OC)CCN3C(=O)CCC(=O)NCCCN(C)C was tested. Which TGI (MALME-3M melanoma) did it give?
A: > 100 µM

Q: What about the TGI (TK-10 renal) of the same compound?
A: > 100 µM

Q: What about the TGI (RPMI-8226 leukemia) of the same compound?
A: > 100 µM

Q: What about the TGI (SK-MEL-5 melanoma) of the same compound?
A: 28.2 µM

Q: What about the TGI (ACHN renal) of the same compound?
A: > 100 µM

Q: What about the TGI (HCT-116 colon) of the same compound?
A: > 100 µM

Q: And the TGI (COLO 205 colon)?
A: > 100 µM

Q: And the TGI (IGROV1 ovarian)?
A: > 100 µM

Q: And the TGI (OVCAR-3 ovarian)?
A: > 100 µM

Q: And the TGI (HOP-92 NSCLC)?
A: 64.6 µM

Q: Which results are given for COc1ccc(S(=O)(=O)N(C)CC(=O)O)cc1?
A: TGI (MALME-3M melanoma): > 100 µM; TGI (TK-10 renal): > 100 µM; TGI (RPMI-8226 leukemia): > 100 µM; TGI (SK-MEL-5 melanoma): > 100 µM; TGI (ACHN renal): > 100 µM; TGI (COLO 205 colon): > 100 µM; TGI (IGROV1 ovarian): > 100 µM; TGI (OVCAR-3 ovarian): > 100 µM; TGI (HOP-92 NSCLC): > 100 µM

Q: C/C(CC(=O)N(C(C)C)C(C)C)=N\NC(=O)c1ccncc1 was tested. Which TGI (MALME-3M melanoma) did it give?
A: > 100 µM

Q: And the TGI (RPMI-8226 leukemia)?
A: > 100 µM

Q: And the TGI (SK-MEL-5 melanoma)?
A: > 100 µM

Q: And the TGI (ACHN renal)?
A: > 100 µM

Q: What about the TGI (HCT-116 colon) of the same compound?
A: > 100 µM

Q: And the TGI (COLO 205 colon)?
A: > 100 µM

Q: And the TGI (IGROV1 ovarian)?
A: > 100 µM

Q: What about the TGI (OVCAR-3 ovarian) of the same compound?
A: > 100 µM

Q: What about the TGI (HOP-92 NSCLC) of the same compound?
A: > 100 µM

Q: Which GI50 (MALME-3M melanoma) does the source give for Cc1cc(C(O)CN(C)C)cc2c1ccc1cc(C(C)C)ccc12 (configuration not stated) here?
A: 1.92 µM

Q: What about the TGI (MALME-3M melanoma) of the same compound?
A: 3.83 µM

Q: And the GI50 (TK-10 renal)?
A: 1.77 µM

Q: What about the TGI (TK-10 renal) of the same compound?
A: 3.36 µM

Q: And the GI50 (RPMI-8226 leukemia)?
A: 2.36 µM

Q: And the TGI (RPMI-8226 leukemia)?
A: 5.12 µM

Q: And the GI50 (SK-MEL-5 melanoma)?
A: 1.76 µM

Q: And the TGI (SK-MEL-5 melanoma)?
A: 3.16 µM

Q: And the GI50 (ACHN renal)?
A: 1.87 µM

Q: What about the TGI (ACHN renal) of the same compound?
A: 3.65 µM

Q: What about the GI50 (HCT-116 colon) of the same compound?
A: 1.8 µM

Q: And the TGI (HCT-116 colon)?
A: 3.29 µM

Q: What about the GI50 (COLO 205 colon) of the same compound?
A: 1.73 µM

Q: And the TGI (COLO 205 colon)?
A: 3.32 µM

Q: What about the GI50 (IGROV1 ovarian) of the same compound?
A: 1.85 µM

Q: And the TGI (IGROV1 ovarian)?
A: 3.8 µM

Q: What about the GI50 (OVCAR-3 ovarian) of the same compound?
A: 1.92 µM

Q: And the TGI (OVCAR-3 ovarian)?
A: 3.6 µM

Q: And the GI50 (HOP-92 NSCLC)?
A: 1.83 µM

Q: And the TGI (HOP-92 NSCLC)?
A: 6.45 µM
